The values below are quoted from earlier work in patent US20120135104A1, “Enhanced Absorption of Omega Fatty Acid Oils” (priority 2010, published 2012).

The conditions of the series: single emulsifier.

On to polyoxyethylene sorbitan monooleate, for which the HLB value entry is reported as “about 15”.
